Experimental data from publication PMC11477194, “3-Alkoxy-1-Benzyl-5-Nitroindazole Derivatives Are Potent Antileishmanial Compounds” (International Journal of Molecular Sciences, 2024).
Read-outs that look alike come from different tables or passages of the source.

Assays:
[1] = Cytotoxicity in mouse peritoneal macrophages (resazurin); type: cell-based; conditions: concentration that causes lysis of 50% of BALB/c mouse peritoneal macrophages
Description: To obtain peritoneal macrophages, the mice were sacrificed by cervical dislocation, and the resident cells in the peritoneum were extracted by washing with RPMI (Roswell Park Memorial Institute, Buffalo, NY, USA) medium and cold (4 °C) supplemented with 10% FBS and antibiotics (sodium penicillin 200 IU/mL and streptomycin 200 μg/mL). Cell concentration was calculated using Neubauer chamber counts in an optical microscope (Motic, Xiamen, China) with a 40× objective and 10× eyepieces (400× magnification).
Cytotoxicity in mouse peritoneal macrophages: Peritoneal macrophages were adjusted to 10^5 macrophages/mL, and 200 μL was seeded per well in a 96-well plate and incubated at 33 °C and 5% CO2 for 2 h. Subsequently, the non-attached cells were discarded, and the monolayer was washed with PBS. The compounds were tested in serial dilutions of 1/2.5 (650–1.0 μM). The treated cultures were incubated for 48 h at 33 °C in a humidified atmosphere containing 5% CO2.
(§1) Every concentration of the test compounds was assessed in quadruplicate.
(§2) Cell viability was assessed using the resazurin transformation method. After the incubation period, 20 μL of 3 mM resazurin solution prepared in sterile PBS was added to each well. Reading was performed at 540 nm excitation and 590 nm emission wavelengths after 8 h of incubation in a 96-well plate reader (SUMA®, Habana, Cuba). The mean fluorescence intensity was calculated for each concentration. From the mean values of fluorescence and the corresponding product concentrations, a non-linear fit to the Emax sigmoid model was performed, and the mean inhibitory concentrations (IC50), mean effective concentrations (EC50), and the mean cytotoxic concentration (CC50) were estimated. The selectivity index was calculated as SIp = CC50/IC50 and SIa = CC50/EC50 for the promastigote and amastigote stages, respectively.

[2] = system: L. infantum promastigotes; test: Susceptibility assay in promastigotes, L. infantum; type: cell-based; conditions: 72 h, read-out: IC50 ± SD
Source text: (§3) The strains used in this research were MHOM/BR/77/LTB0016 of L. amazonensis from the Pedro Kouri Institute of Tropical Medicine Cuba strains collection, MHOM/FR/78/LEM75 of L. infantum from the Department of Parasitology, Faculty of Pharmacy of the Complutense University of Madrid Spain, and MNYC/BZ/62/M379 of L. mexicana from the Laboratory of Molecular Immunobiochemistry and Heart Diseases UNAM-INC Mexico Research Unit. The parasites were obtained from the skin lesions of previously infected BALB/c mice and maintained at 26 °C in Schneider medium (SIGMA, St. Louis, MO, USA) and supplemented with antibiotics (penicillin sodium 200 IU/mL and streptomycin 200 μg/mL SIGMA, St. Louis, MO, USA) and 10% fetal bovine serum (FBS, SIGMA, St. Louis, MO, USA), and inactivated with heat (56 °C, 30 min). The promastigotes, once isolated, were kept in the exponential multiplication phase by successive subcultures every 3 or 4 days until the time of use.
(§4) Susceptibility assay in promastigotes: Promastigotes culture in the exponential growth phase were seeded in 96-well plates (10^6 parasites/mL) at a final volume of 200 μL/well. Compounds were tested in serial 1/2.5 dilutions (130–0.2 μM). The treated cultures were incubated for 72 h at 26 °C.
as §1, §2

[3] = system: L. mexicana promastigotes; test: Susceptibility assay in promastigotes, L. mexicana; type: cell-based; conditions: 72 h
Source text: as §3, §4, §1, §2

[4] = system: L. mexicana intracellular amastigotes; test: Intracellular amastigote assay, L. mexicana; type: cell-based; conditions: Leishmania mexicana, read-out: EC50 ± SD, intracellular amastigotes, L. mexicana
Source text: as §3
(§5) Intracellular amastigote assay: Macrophages were seeded in 96-well plates at an initial density of 10^5 cells/mL in a final volume of 200 µL per well. After 2 h of incubation at 33 °C and 5% CO2, the cell monolayer was infected with a culture of promastigotes in the stationary phase of growth at a ratio of 10:1 (promastigotes: macrophages) and incubated under the same conditions for 4 h. The compounds were tested in serial dilutions of 1/2.5 (15–0.02 μM). The treated cultures were then incubated for 48 h under similar conditions. After incubation, the RPMI medium was removed and replaced with Schneider’s medium. Cultures were incubated for 72 h at 26 °C to allow the surviving amastigotes to transform into promastigotes and replicate.
as §1, §2

[5] = system: L. amazonensis promastigotes; test: Susceptibility assay in promastigotes, L. amazonensis; type: cell-based; conditions: 72 h, read-out: IC50 ± SD
Source text: as §3, §4, §1, §2

Leishmania spp. [6] = test: Antileishmanial activity, species not separated (pooled statement or literature); type: cell-based; conditions: all Leishmania species; active = IC50 ≤ 1 μM and SI ≥ 10
[7] = system: L. amazonensis intracellular amastigotes; test: Intracellular amastigote assay, L. amazonensis; type: cell-based; conditions: read-out: EC50 ± SD
Source text: as §3, §5, §1, §2

[8] = system: L. infantum intracellular amastigotes; test: Intracellular amastigote assay, L. infantum; type: cell-based; conditions: read-out: EC50 ± SD
Source text: as §3, §5, §1, §2

[9] = system: amastigotes of L. amazonensis; conditions: cited from earlier work
Leishmania spp. [10] = conditions: promastigote stage, drug used in the clinic; cited from earlier work
[11] = system: promastigotes of L. amazonensis; test: Scanning and transmission electron microscopy of treated promastigotes; type: cell-based; conditions: for Structural damage, scanning electron microscopy: L. amazonensis promastigotes treated at IC50, ½ IC50, ¼ IC50; for Ultrastructural damage, transmission electron microscopy: L. amazonensis promastigotes, 72 h of incubation at IC50, ½ IC50, ¼ IC50
Source text: The concentrations of compounds selected for the study of structural and ultrastructural damage were those corresponding to IC50, ½ IC50, and ¼ IC50 for compound NV8 (reported in this study) and the previously reported compound VATR 131 [21]. The procedure for the treatment of cultures was the same as that described above for the in vitro tests on promastigotes of L. amazonensis. Two negative controls were used: a DMSO-treated culture (0.1%) and an untreated culture.
At the end of the exposure to the compounds, the parasites were washed once with PBS and immediately fixed with 2.5% glutaraldehyde in PBS for 1 h at room temperature. After a thorough wash with PBS, the parasites were fixed with 1% OsO4 in PBS at 4 °C for 1 h and then washed with PBS. The parasites were dehydrated in increasing concentrations of ethanol. Drying was carried out at the critical point of CO2 in a Samdry 780 apparatus (USA). Next, they were evaporated with gold in a Denton Vacuum Desk (USA). Finally, the samples were observed and micrographed using a JSM 6510LB-JEOL microscope at 30 keV.
Promastigotes were washed with PBS and fixed with 2.5% glutaraldehyde solution for 1 h at 4 °C. They were then fixed with a solution of 1% OsO4 in the same buffer at 4 °C and in darkness for 1 h. Promastigotes were washed with PBS at RT and dehydrated in an ethanolic solution in increasing order by up to 100%. They were then included in the epoxy resin using specific molds for polymerization and maintained at 60 °C for a minimum period of 72 h. The blocks were cut with an ultramicrotome (Reichert Jung, Austria) into thin sections. The slices were stained with uranyl acetate and lead citrate and subsequently micrographed using a JEM 1400 transmission electron microscope (JEOL, Ltd., Tokyo, Japan).

[12] = system: L. amazonensis promastigotes; parameters: method as in PMID 37915499; conditions: promastigotes of L. amazonensis; previously reported compound; cited from earlier work
[13] = BALB/c, mouse, peritoneal macrophages
[14] = Leishmania infantum, promastigotes, L. infantum
[15] = Leishmania mexicana, read-out: IC50 ± SD, promastigotes, L. mexicana, 72 h
[16] = Leishmania amazonensis, promastigotes, L. amazonensis
[17] = Leishmania amazonensis, intracellular amastigotes, L. amazonensis
[18] = Leishmania infantum, intracellular amastigotes, L. infantum
[19] = intracellular amastigotes, L. infantum

Row | SMILES | CC50 at 48 h [1, 13] [µM] | IC50 [2, 14] [µM] | IC50 [3, 15] [µM] | EC50 [4] [µM] | IC50 [5, 16] [µM] | EC50 [8, 18] [µM] | further results
1 | O=[N+]([O-])c1ccc2c(c1)c(OCCCCCN1CCCCC1)nn2Cc1ccccc1 [NV16] | 21.1 ± 7.1 | 1.41 ± 0.03 | ≤ 1 | 4.29 ± 0.48 | – | – | IC50 ([3]; read-out: IC50 ± SD, promastigotes, L. mexicana): 0.5 ± 0.1 µM
2 | O=[N+]([O-])c1ccc2c(c1)c(OCCBr)nn2Cc1ccccc1 [NV11] | – | 20.4 ± 1.3 | 9.38 ± 0.13 | – | 20.7 ± 1.38 | – | Classification against promastigotes (Leishmania spp. [6]): inactive
3 | O=[N+]([O-])c1ccc2c(c1)c(OCCCCCBr)nn2Cc1ccccc1 [NV12] | – | 32.96 ± 0.25 | 2.8 ± 1.1 | – | 2.88 ± 1.47 | – | Classification against promastigotes (Leishmania spp. [6]): inactive
4 | O=[N+]([O-])c1ccc2c(c1)c(OCCN1CCCCC1)nn2Cc1ccccc1 [NV7] | 24.4 ± 6.7 | – | – | 3.1 ± 1.05 | – | 12.8 ± 0.13 | EC50 [7, 17]: 5.61 ± 0.69 µM
5 | c1ccc2ncccc2c1 [quinoline] | – | – | – | – | – | – | EC50 [9]: 0.54 µM
6 | CN(C)CCCCCOc1nn(Cc2ccccc2)c2ccc([N+](=O)[O-])cc12 [NV14] | 2.5 ± 0.7 | 0.93 ± 0.18 | – | 8.2 ± 0.2 | 0.5 ± 0.22 | – | –
7 | N=C(N)c1ccc(OCCCCCOc2ccc(C(=N)N)cc2)cc1 [pentamidine] | – | – | – | – | – | – | IC50 (Leishmania spp. [10]): 30 µM
8 | CN(C)CCOc1nn(Cc2ccccc2)c2ccc([N+](=O)[O-])cc12 [NV4] | 67.1 ± 8.9 | ≤ 1 | 2.3 ± 0.4 | – | – | ≤ 5 | IC50 ([2]; promastigotes, L. infantum): 0.52 ± 0.05 µM; EC50 [7, 17]: 12.3 ± 0.7 µM; EC50 [8, 19]: 3.42 ± 1.8 µM
9 | C[C@@H](c1nc(-c2ccc(C#N)cc2)cs1)[C@](O)(Cn1cncn1)c1ccc(F)cc1F [ravuconazole] | – | – | – | – | – | – | EC50 [9]: 5.11 µM
10 | NCCCCCOc1nn(Cc2ccccc2)c2ccc([N+](=O)[O-])cc12 [NV17] | 7.74 ± 3 | – | 2.9 ± 0.1 | – | 1.01 ± 0.39 | 11.8 ± 1.04 | –
11 | NCCCOc1nn(Cc2ccccc2)c2ccc([N+](=O)[O-])cc12 [NV9] | 47.9 ± 10.4 | ≤ 1 | 2.8 ± 3 | – | ≤ 1 | 9.71 ± 0.4 | IC50 ([5]; promastigotes, L. amazonensis): 0.81 ± 0.17 µM; IC50 ([2]; promastigotes, L. infantum): 0.59 ± 0.16 µM
12 | CN(C)CCCOc1nn(Cc2ccccc2)c2ccc([N+](=O)[O-])cc12 [NV6] | 61 ± 6.9 | ≤ 1 | – | – | – | ≤ 5 | IC50 ([2]; promastigotes, L. infantum): 0.69 ± 0.063 µM; EC50 [8, 19]: 3.79 ± 1.46 µM
13 | CNCCCCCOc1nn(Cc2ccccc2)c2ccc([N+](=O)[O-])cc12 [NV15] | 5.6 ± 2.5 | 1.27 ± 0.06 | – | 1.53 ± 0.13 | 1.88 ± 1.34 | – | –
14 | O=[N+]([O-])c1ccc2c(c1)c(OCCCN1CCCCC1)nn2Cc1ccccc1 [NV8] | 23.2 ± 5 | – | – | – | – | – | Structural damage, scanning electron microscopy [11]: the bodies were completely swollen and spheroidal in appearance; Ultrastructural damage, transmission electron microscopy [11]: most of the parasites are atypical; many are swollen or deformed and present large cytosolic vacuoles
15 | CNCCOc1nn(Cc2ccccc2)c2ccc([N+](=O)[O-])cc12 [NV13] | 61.4 ± 9.4 | – | – | 11.6 ± 0.7 | ≤ 1 | 16.2 ± 0.54 | IC50 ([5]; promastigotes, L. amazonensis): 0.82 ± 0.27 µM; EC50 [7, 17]: 5.66 ± 0.53 µM
16 | NCCOc1nn(Cc2ccccc2)c2ccc([N+](=O)[O-])cc12 [NV10] | 46.7 ± 7.7 | ≤ 1 | 4.5 ± 0.5 | – | ≤ 1 | – | IC50 ([5]; promastigotes, L. amazonensis): 0.99 ± 0.14 µM; IC50 ([2]; promastigotes, L. infantum): 0.93 ± 0.27 µM; EC50 [7, 17]: ≤ 5 µM; EC50 ([7]; intracellular amastigotes, L. amazonensis): 4.35 ± 0.9 µM
17 | CC(=O)OCCn1c2ccc([N+](=O)[O-])cc2c(=O)n1Cc1ccccc1 [VATR 131] | – | – | – | – | – | – | Structural damage, scanning electron microscopy [11]: an alteration in the morphology of the parasites was observed from the lowest concentration of the compound; Ultrastructural damage, transmission electron microscopy [11]: very similar to those observed for NV8 at concentrations equivalent to ¼ IC50 and ½ IC50; IC50 [12]: 2.13 µM
18 | C[C@@H]1[C@H](O)[C@@H](C)/C=C/C=C/C=C/C=C/C=C/C=C/C=C/[C@H](O[C@@H]2O[C@H](C)[C@@H](O)[C@H](N)[C@@H]2O)C[C@@H]2O[C@](O)(C[C@@H](O)C[C@@H](O)[C@H](O)CC[C@@H](O)C[C@@H](O)CC(=O)O[C@H]1C)C[C@H](O)[C@H]2C(=O)O [AmB, Amphotericin B, reference compound] | – | – | 0.046 ± 0.012 | 0.036 ± 0.008 | – | – | CC50 at 48 h [1]: 5.8 ± 0.5 µM; IC50 ([5]; Leishmania amazonensis): 0.03 ± 0.01 µM; IC50 ([2]; Leishmania infantum): 0.28 ± 0.01 µM; EC50 ([7]; Leishmania amazonensis): 0.034 ± 0.006 µM; EC50 ([8]; Leishmania infantum): 0.6 ± 0.21 µM
19 | CCCCCCCCCCCCCCCCOP(=O)([O-])OCC[N+](C)(C)C [miltefosine] | – | – | – | – | – | – | IC50 (Leishmania spp. [10]): 50.7 µM
